The values that follow come from patent publication US8691789B2, “Probe of iodine-123 marker thymidine (FLT)analogue [123I]-IaraU” (Atomic Energy Council-Institute of Nuclear Research, priority 2012, dated 2014).

The structures appear in SMILES notation. Entries after “also recorded” stand apart in the source; their conditions may differ.

Type in all cases: cell-based
Test [1] has as its system NG4TL4-wild type cells. In words: cellular uptake experiment of [^123I]-IaraU in NG4TL4-wild type cells. As to the method:
(§1) Please refer to FIG. 3 which is a schematic view of experimental results of cell absorption of [^123I]-IaraU according to the invention. As shown, the present invention utilizes the above synthesized iodine-123 marker FLT analogue for in vitro experiments which totally use cells of NG4TL4-wild type, NG4TL4-HSVtk, NG4TL4-sr39tk. They are cultivated in the DMEM (Dulbecco's Modified Eagle's Medium) medium containing 10% fetal bovine serum at 37° C. and in the environment having 5% carbon dioxide. Then they are planted in 96-well plate at the proportion of 1×10^5 cells/well for 12 hours, and then subjected to biological experiments.
(§2) Before the cellular uptake experiment starts, 1 mCi of the above [^123I]-IaraU 8 or [^18F]-FLT (from INER) is thoroughly mixed with 50 ml of serum-free DMEM medium. The cultivated medium on the 96-well plate is drained out, and the aforementioned cultivated medium mixed with radioactive material is immediately added material with the ratio of 200 μl/well. The cells to which the cultivated medium has been added are placed back to an incubator of 5% CO2 at 37° C. […] Finally, a Gamma-Counter is used to measure the radioactivity of cytoplasm for each individual supernatant. The formula for analysis is as follows: (Radioactivity of cytoplasm/Activity as whole)×100%.

Test [2] relates to NG4TL4-sr39tk cells. In words: cellular uptake experiment of [^123I]-IaraU in NG4TL4-sr39tk cells. As to the method: as §1, §2
For test [3], the system named is NG4TL4-HSVtk cells. In words: cellular uptake experiment of [^123I]-IaraU in NG4TL4-HSVtk cells. Here is the method:
as §1, §2

Where [4] appears, read: after five hours, % of the total amount.
[5] abbreviates: time points 0.25, 0.5, 1.5, 3 and 5 hours.

For `O=c1[nH]c(=O)n([C@@H]2O[C@H](CO)C(O)C2O)cc1[123I]` (stereo partly drawn) [[^123I]-IaraU, 1-(β-D-arabinofuranosyl)-5-[^123I]iodopyrimidin-2,4(3H)-dione], the “maximum intake (radioactivity of cytoplasm/activity as whole ×100%)” value in test [1] (setting [4]), in test [2] (setting [4]) and in test [3] (setting [4]) was “not more than 10%” in each case. Also, the “cellular uptake over time (in words)” value in test [1] (setting [5]), in test [2] (setting [5]) and in test [3] (setting [5]) was “no significant intake; also recorded: no significant increase in quantity” in each case.
